Values of other authors in patent US20240209053A1 (Protagonist Therapeutics, Inc., priority 2021, published 2024).

Molecular target: T1, ferroportin fused to green fluorescent protein (Mus musculus, UniProt Q9JHI9)
T1 sequence (Q9JHI9 1-570): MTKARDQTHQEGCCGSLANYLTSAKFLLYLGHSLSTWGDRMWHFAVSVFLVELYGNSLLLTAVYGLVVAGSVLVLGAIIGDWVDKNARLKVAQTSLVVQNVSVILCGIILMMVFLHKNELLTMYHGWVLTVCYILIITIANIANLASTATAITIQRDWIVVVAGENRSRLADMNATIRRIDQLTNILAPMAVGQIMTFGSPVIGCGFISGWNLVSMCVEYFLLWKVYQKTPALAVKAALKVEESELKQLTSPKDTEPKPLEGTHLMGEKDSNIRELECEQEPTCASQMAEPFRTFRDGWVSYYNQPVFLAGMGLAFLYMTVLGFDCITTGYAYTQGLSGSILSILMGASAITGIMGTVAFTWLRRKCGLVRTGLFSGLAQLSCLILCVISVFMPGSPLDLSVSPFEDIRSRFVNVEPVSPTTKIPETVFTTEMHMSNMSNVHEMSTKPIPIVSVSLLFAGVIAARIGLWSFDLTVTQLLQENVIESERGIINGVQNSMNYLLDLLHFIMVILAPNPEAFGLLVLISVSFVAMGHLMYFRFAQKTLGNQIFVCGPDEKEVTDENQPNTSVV
Details: read-out: EC50 (50% of maximal loss of fluorescence); cells incubated 24 hours; reference preparations of Hep25; cited from earlier work

## CC[C@H](C)[C@@H]1NC(=O)[C@@H](NC(=O)[C@@H](NC(=O)[C@@H]2CCCN2C(=O)[C@H](Cc2ccccc2)NC(=O)[C@H](Cc2c[nH]cn2)NC(=O)[C@@H](NC(=O)[C@@H](N)CC(=O)O)[C@@H](C)O)[C@@H](C)CC)CSSC[C@@H](C(=O)N[C@@H](CCCCN)C(=O)N[C@H](C(=O)O)[C@@H](C)O)NC(=O)[C@@H]2CSSC[C@@H]3NC(=O)[C@@H]4CSSC[C@H](NC(=O)[C@H](Cc5ccccc5)NC1=O)C(=O)N[C@@H](CSSC[C@H](NC(=O)[C@H](CCCCN)NC(=O)[C@H](CO)NC(=O)[C@H](CCCNC(=N)N)NC(=O)[C@H](Cc1c[nH]cn1)NC3=O)C(=O)NCC(=O)N[C@@H](CCSC)C(=O)N2)C(=O)NCC(=O)N4 [Hepcidin, Hy-DTHFPIC(1)IFC(2)C(3)GC(2)C(4)HRSKC(3)GMC(4)C(1)KT-OH]
  EC50: 5 to 15 nM
